Test results: ChEMBL document CHEMBL1909046, “DrugMatrix in vitro pharmacology data”

Tests used:
[1] = target: Sodium-dependent noradrenaline transporter (Homo sapiens, UniProt P23975); test: DRUGMATRIX: Norepinephrine Transporter radioligand binding (ligand: [125I] RTI-55); assay type: cell membranes, MDCK, Membrane; details: Not Active = under 50% inhibition at 10 µM; for Ki: read-out: Ki
[2] = target: C-C chemokine receptor type 2 (Homo sapiens, UniProt P41597); assay type: cell membranes, CHO-K1, Membrane; details: cho-k1; further: in other assays of this panel Not Active means under 50% inhibition at 10 µM
[3] = target: T1, Neuropeptide Y receptor type 2 (Homo sapiens, UniProt P49146); assay type: cell membranes, Membrane; details: kan-ts; further: in other assays of this panel Not Active means under 50% inhibition at 10 µM
T1 sequence (P49146 whole entry): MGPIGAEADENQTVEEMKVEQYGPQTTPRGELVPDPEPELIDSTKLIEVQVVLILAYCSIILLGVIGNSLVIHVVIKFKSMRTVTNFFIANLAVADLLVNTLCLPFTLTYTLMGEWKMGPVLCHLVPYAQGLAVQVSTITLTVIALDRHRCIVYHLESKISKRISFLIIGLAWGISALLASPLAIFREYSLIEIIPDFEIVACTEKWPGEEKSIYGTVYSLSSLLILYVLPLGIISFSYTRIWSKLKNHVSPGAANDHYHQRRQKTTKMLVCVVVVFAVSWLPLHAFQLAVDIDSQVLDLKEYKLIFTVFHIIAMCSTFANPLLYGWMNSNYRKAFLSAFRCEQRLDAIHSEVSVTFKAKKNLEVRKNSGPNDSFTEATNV

Interstitial collagenase = target: T2, Interstitial collagenase (Homo sapiens, UniProt P03956); assay type: tissue-based, Rheumatoid synovial fibroblasts;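 further: MMP-1 enzyme inhibition assay using a peptide substrate; in other assays of this panel Not Active means under 50% inhibition at 10 µM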
T2 sequence (P03956 whole entry): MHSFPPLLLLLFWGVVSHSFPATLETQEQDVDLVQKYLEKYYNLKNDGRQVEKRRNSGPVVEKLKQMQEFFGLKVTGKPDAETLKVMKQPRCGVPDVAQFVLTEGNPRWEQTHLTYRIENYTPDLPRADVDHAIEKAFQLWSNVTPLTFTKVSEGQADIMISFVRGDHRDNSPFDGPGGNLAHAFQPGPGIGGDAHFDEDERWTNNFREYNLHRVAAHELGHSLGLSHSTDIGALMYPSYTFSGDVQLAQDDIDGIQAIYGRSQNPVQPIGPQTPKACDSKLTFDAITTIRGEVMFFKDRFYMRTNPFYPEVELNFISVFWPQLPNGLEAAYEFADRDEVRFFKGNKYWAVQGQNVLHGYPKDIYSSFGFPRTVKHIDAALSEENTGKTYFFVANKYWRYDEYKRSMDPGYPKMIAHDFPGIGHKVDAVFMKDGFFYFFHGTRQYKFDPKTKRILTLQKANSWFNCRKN

[4] = target: Receptor tyrosine-protein kinase erbB-2 (Homo sapiens, UniProt P04626); test: biochemical; assay type: cell-based, Insect cells;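 further: inhibition of HER2 kinase enzyme activity, measured with Poly(Glu:Tyr) as the phosphorylation substrate; in other assays of this panel Not Active means under 50% inhibition at 10 µM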
Adenosine receptor A2a = Adenosine receptor A2a (Homo sapiens, UniProt P29274); test: DRUGMATRIX: Adenosine A2A radioligand binding (ligand: […]); assay type: cell membranes, HEK293, Membrane; details: Not Active = under 50% inhibition at 10 µM; for Ki: read-out: Ki
Sequence of Adenosine receptor A2a (P29274 whole entry): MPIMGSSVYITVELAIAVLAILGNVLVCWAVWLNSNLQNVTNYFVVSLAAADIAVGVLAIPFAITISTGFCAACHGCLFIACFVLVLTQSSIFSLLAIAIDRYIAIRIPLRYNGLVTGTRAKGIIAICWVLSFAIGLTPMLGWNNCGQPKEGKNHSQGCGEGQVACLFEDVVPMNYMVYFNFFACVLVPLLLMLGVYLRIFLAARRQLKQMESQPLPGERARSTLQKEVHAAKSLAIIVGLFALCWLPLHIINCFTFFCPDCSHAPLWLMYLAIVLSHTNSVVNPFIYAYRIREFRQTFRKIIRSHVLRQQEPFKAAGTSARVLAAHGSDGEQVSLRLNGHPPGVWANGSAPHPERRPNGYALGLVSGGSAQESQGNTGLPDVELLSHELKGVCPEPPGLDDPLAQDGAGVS

Sequence of C-C chemokine receptor type 2 (P41597 whole entry): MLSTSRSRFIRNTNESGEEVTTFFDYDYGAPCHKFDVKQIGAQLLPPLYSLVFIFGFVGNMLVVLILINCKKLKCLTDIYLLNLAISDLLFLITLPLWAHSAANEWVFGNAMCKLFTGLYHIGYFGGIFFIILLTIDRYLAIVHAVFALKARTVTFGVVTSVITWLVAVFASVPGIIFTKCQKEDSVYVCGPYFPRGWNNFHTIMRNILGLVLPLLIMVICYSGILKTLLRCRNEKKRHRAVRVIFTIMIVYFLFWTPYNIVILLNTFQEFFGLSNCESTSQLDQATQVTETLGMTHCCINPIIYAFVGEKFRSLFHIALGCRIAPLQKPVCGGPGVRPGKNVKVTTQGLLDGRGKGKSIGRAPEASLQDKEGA
Sequence of Sodium-dependent noradrenaline transporter (P23975 whole entry): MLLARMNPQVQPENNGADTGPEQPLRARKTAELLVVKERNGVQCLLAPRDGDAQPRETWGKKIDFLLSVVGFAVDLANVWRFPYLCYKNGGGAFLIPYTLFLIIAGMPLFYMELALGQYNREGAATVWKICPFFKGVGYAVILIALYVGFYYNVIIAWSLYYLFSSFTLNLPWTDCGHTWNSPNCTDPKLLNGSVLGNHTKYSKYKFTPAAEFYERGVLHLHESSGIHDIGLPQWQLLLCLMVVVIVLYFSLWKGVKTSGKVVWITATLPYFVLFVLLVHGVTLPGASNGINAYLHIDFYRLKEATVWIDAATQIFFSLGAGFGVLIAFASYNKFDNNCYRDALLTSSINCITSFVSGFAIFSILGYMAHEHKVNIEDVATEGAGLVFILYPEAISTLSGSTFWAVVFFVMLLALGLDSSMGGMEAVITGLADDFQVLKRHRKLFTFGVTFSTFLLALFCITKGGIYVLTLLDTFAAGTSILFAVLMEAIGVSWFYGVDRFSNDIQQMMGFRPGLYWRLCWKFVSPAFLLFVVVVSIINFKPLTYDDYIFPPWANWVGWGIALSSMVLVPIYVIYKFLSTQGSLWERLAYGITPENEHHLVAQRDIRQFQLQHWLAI
Sequence of Receptor tyrosine-protein kinase erbB-2 (P04626 whole entry): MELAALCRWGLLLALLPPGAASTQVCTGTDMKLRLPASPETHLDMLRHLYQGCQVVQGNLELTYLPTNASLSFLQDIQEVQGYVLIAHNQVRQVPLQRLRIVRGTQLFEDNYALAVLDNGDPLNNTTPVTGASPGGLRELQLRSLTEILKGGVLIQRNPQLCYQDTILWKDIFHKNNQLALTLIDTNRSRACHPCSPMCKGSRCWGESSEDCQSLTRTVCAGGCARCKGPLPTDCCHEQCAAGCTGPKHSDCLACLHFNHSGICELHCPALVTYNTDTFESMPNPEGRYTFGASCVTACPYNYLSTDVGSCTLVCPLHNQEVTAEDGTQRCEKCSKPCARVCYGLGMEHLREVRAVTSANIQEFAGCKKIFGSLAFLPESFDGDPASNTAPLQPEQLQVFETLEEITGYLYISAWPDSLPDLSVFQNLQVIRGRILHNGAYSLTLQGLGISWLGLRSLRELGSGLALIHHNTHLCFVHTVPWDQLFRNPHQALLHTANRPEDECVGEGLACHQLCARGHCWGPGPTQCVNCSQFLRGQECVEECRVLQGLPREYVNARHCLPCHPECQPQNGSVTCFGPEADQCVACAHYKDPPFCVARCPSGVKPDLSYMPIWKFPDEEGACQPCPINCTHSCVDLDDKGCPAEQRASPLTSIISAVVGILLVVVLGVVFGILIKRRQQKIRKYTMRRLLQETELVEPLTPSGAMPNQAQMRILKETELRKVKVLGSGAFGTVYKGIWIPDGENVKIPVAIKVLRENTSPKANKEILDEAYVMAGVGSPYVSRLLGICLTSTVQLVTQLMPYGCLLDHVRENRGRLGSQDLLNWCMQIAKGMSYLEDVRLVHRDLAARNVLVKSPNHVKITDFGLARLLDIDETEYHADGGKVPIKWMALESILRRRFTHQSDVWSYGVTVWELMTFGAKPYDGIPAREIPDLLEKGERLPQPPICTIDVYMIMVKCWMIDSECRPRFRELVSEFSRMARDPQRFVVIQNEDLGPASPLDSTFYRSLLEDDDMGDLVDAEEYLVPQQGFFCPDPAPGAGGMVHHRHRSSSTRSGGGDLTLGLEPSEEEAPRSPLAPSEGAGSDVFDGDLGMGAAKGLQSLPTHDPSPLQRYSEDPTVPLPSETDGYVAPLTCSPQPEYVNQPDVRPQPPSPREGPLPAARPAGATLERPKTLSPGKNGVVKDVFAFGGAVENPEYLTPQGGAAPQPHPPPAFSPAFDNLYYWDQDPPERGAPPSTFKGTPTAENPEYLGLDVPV

| SMILES | IC50 ([1]; read-out: IC50) | Ki [1] | IC50 [2] | IC50 [3] | IC50 (Interstitial collagenase) | IC50 ([4]; insect cells) | IC50 (Adenosine receptor A2a; read-out: IC50) | Ki (Adenosine receptor A2a) | IC50 ([1]; mdck) | IC50 (Adenosine receptor A2a; hek293) | IC50 ([4]; read-out: IC50) |
| --- | --- | --- | --- | --- | --- | --- | --- | --- | --- | --- | --- |
| COc1cc(N)nc2[nH]c(-c3ccc(F)cc3)c(-c3ccncc3)c12 | 1.07 µM | 1.06 µM | Not Active | Not Active | Not Active | Not Active | 1.03 µM | 0.58 µM |  |  |  |
| CNS(=O)(=O)Cc1ccc2[nH]cc(CCN(C)C)c2c1 |  |  | Not Active | Not Active | Not Active | Not Active |  |  | Not Active | Not Active |  |
| CCCc1nn(C)c2c(=O)[nH]c(-c3cc(S(=O)(=O)N4CCN(C)CC4)ccc3OCC)nc12 |  |  | Not Active | Not Active | Not Active | Not Active | 0.253 µM | 0.142 µM | Not Active |  |  |
| COc1ccc(/C=C/C(=O)Nc2ccccc2C(=O)O)cc1OC |  |  | Not Active | Not Active | Not Active | Not Active |  |  | Not Active | Not Active |  |
| CCOC(N)=O |  |  | Not Active | Not Active | Not Active | Not Active |  |  | Not Active | Not Active |  |
| CC(=O)Nc1nnc(S(N)(=O)=O)s1 [ACETAZOLAMIDE] |  |  | Not Active | Not Active | Not Active | Not Active |  |  | Not Active | Not Active |  |
| O=c1[nH]c2ccccc2n1CCCN1CCC(n2c(=O)[nH]c3cc(Cl)ccc32)CC1 [DOMPERIDONE] |  |  | Not Active | Not Active | Not Active | Not Active |  |  |  | Not Active |  |
| CC1=C(CC(=O)O)c2cc(F)ccc2/C1=C\c1ccc(S(C)(=O)=O)cc1 [EXISULIND] |  |  | Not Active | Not Active | Not Active | Not Active |  |  | Not Active | Not Active |  |
| CC(C)OC(=O)C(C)(C)Oc1ccc(C(=O)c2ccc(Cl)cc2)cc1 [FENOFIBRATE] |  |  | Not Active | Not Active | Not Active | Not Active |  |  |  | Not Active |  |
| OCCN1CCN(CCCN2c3ccccc3Sc3ccc(C(F)(F)F)cc32)CC1 [FLUPHENAZINE] | 1.96 µM | 1.95 µM | Not Active | Not Active | Not Active |  |  |  |  | Not Active | 19.6 µM |
| CN1C2CCCC1CC(NC(=O)c1nn(C)c3ccccc13)C2 (centres undefined) [GRANISETRON] |  |  | Not Active | Not Active | Not Active | Not Active |  |  | Not Active | Not Active |  |
| Nc1nc2c(c(=O)[nH]1)N(C=O)C(CNc1ccc(C(=O)N[C@@H](CCC(=O)O)C(=O)O)cc1)CN2 (some centres undefined) [LEUCOVORIN] |  |  | Not Active | Not Active | Not Active | Not Active |  |  | Not Active | Not Active |  |
| C[C@@H](O)[C@H]1C(=O)N2C(C(=O)O)=C(S[C@@H]3CN[C@H](C(=O)N(C)C)C3)[C@H](C)[C@H]12 [MEROPENEM] |  |  | Not Active | Not Active | Not Active | Not Active |  |  | Not Active | Not Active |  |
| CC[C@@H](CO)NC(=O)[C@@H]1C=C2c3cccc4c3c(cn4C)C[C@H]2N(C)C1 [METHYSERGIDE] |  |  | Not Active | Not Active | Not Active | Not Active |  |  | Not Active | Not Active |  |
| CCN(CC)CC#CCOC(=O)C(O)(c1ccccc1)C1CCCCC1 (centres undefined) [OXYBUTYNIN] |  |  | Not Active | Not Active | Not Active | Not Active |  |  |  | Not Active |  |
| O=P(O)(O)C(O)(Cc1cccnc1)P(=O)(O)O [RISEDRONIC ACID] |  |  | Not Active | Not Active | Not Active | Not Active |  |  | Not Active | Not Active |  |
| CN(CCOc1ccc(CC2SC(=O)NC2=O)cc1)c1ccccn1 (centres undefined) [ROSIGLITAZONE] |  |  | Not Active | Not Active | Not Active | Not Active |  |  | Not Active | Not Active |  |

| SMILES | IC50 ([1]; read-out: IC50) | Ki [1] | IC50 [2] | IC50 [3] | IC50 (Interstitial collagenase) | IC50 ([4]; insect cells) | IC50 (Adenosine receptor A2a; read-out: IC50) | Ki (Adenosine receptor A2a) | IC50 ([1]; mdck) | IC50 (Adenosine receptor A2a; hek293) | IC50 ([4]; read-out: IC50) |
| --- | --- | --- | --- | --- | --- | --- | --- | --- | --- | --- | --- |
| C=C(C)[C@H]1Cc2c(ccc3c2O[C@@H]2COc4cc(OC)c(OC)cc4[C@@H]2C3=O)O1 [ROTENONE] |  |  | Not Active | Not Active | Not Active | Not Active |  |  | Not Active | Not Active |  |
| C#CCN(C)[C@H](C)Cc1ccccc1 [SELEGILINE] |  |  | Not Active | Not Active | Not Active | Not Active |  |  | Not Active | Not Active |  |
| CO[C@H]1C[C@@H]2CC[C@@H](C)[C@@](O)(O2)C(=O)C(=O)N2CCCC[C@H]2C(=O)O[C@H]([C@H](C)C[C@@H]2CC[C@@H](O)[C@H](OC)C2)CC(=O)[C@H](C)/C=C(\C)[C@@H](O)[C@@H](OC)C(=O)[C@H](C)C[C@H](C)/C=C/C=C/C=C/1C [SIROLIMUS] |  |  | Not Active | Not Active | Not Active | Not Active |  |  | Not Active | Not Active |  |
| CN[C@@H]1[C@H](O)[C@H](NC)[C@H]2O[C@@]3(O)C(=O)C[C@@H](C)O[C@H]3O[C@@H]2[C@H]1O [SPECTINOMYCIN] |  |  | Not Active | Not Active | Not Active | Not Active |  |  | Not Active | Not Active |  |
| Nc1ccc(S(=O)(=O)Nc2ncccn2)cc1 [SULFADIAZINE] |  |  | Not Active | Not Active | Not Active | Not Active |  |  | Not Active | Not Active |  |
| COc1ncnc(NS(=O)(=O)c2ccc(N)cc2)c1OC [SULFADOXINE] |  |  | Not Active | Not Active | Not Active | Not Active |  |  | Not Active | Not Active |  |
| Nc1ccc(S(=O)(=O)Nc2nccs2)cc1 [SULFATHIAZOLE] |  |  | Not Active | Not Active | Not Active | Not Active |  |  | Not Active | Not Active |  |
| C[C@]12CC[C@H]3[C@@H](CCC4=CC(=O)CC[C@@]43C)[C@@H]1CC[C@@H]2O [TESTOSTERONE] |  |  | Not Active | Not Active | Not Active | Not Active |  |  | Not Active | Not Active |  |
| CC(C)(C)NC[C@H](O)COc1nsnc1N1CCOCC1 [TIMOLOL] |  |  | Not Active | Not Active | Not Active | Not Active |  |  | Not Active | Not Active |  |
| CCS(=O)(=O)CCn1c([N+](=O)[O-])cnc1C [TINIDAZOLE] |  |  | Not Active | Not Active | Not Active | Not Active |  |  | Not Active | Not Active |  |
| C[C@@H]1C[C@H]2[C@@H]3CCC4=CC(=O)C=C[C@]4(C)C3=CC[C@]2(C)[C@H]1C(=O)CN1CCN(c2cc(N3CCCC3)nc(N3CCCC3)n2)CC1 [TIRILAZAD] |  |  | Not Active | Not Active | Not Active | Not Active |  |  | Not Active | Not Active |  |
| NC[C@H]1O[C@H](O[C@H]2[C@H](O)[C@@H](O[C@H]3O[C@H](CO)[C@@H](O)[C@H](N)[C@H]3O)[C@H](N)C[C@@H]2N)[C@H](N)C[C@@H]1O [TOBRAMYCIN] |  |  | Not Active | Not Active | Not Active | Not Active |  |  | Not Active | Not Active |  |
| O=c1n(CCCN2CCN(c3cccc(Cl)c3)CC2)nc2ccccn12 [TRAZODONE] |  |  | Not Active | Not Active | Not Active | Not Active |  |  | Not Active | Not Active |  |
| O=C(O)C(Cl)(Cl)Cl [TRICHLOROACETIC ACID] |  |  | Not Active | Not Active | Not Active | Not Active |  |  | Not Active | Not Active |  |
| COc1ccc(CN2CCNCC2)c(OC)c1OC [TRIMETAZIDINE] |  |  | Not Active | Not Active | Not Active | Not Active |  |  | Not Active | Not Active |  |
| CC(=O)O[C@H]1C[C@@H]2CC[C@@H]3[C@H](CC[C@@]4(C)[C@H]3C[C@H]([N+]3(C)CCCCC3)[C@@H]4OC(C)=O)[C@@]2(C)C[C@@H]1N1CCCCC1.[Br-] [VECURONIUM BROMIDE] |  |  | Not Active | Not Active | Not Active | Not Active |  |  | Not Active | Not Active |  |
